# Reference: US4971967A, “Quinolinecarboxylic acid derivatives, antibacterial compositions and use” (Kanebo Ltd, priority 1989, dated 1990)
# Where two headings read alike, the source gives them in different places.
# Assays:
# Assay type in all cases: cell-based
# [1] = system: Staphylococcus epidermidis IAM-1296; test: Antibacterial activity (MIC), S. epidermidis IAM-1296; details: Staphylococcus epidermidis, IAM1296, Staphylococcus epidermidis IAM-1296, Gram +; read-out: Minimum inhibitory concentration (MIC)
# Experimental: (§1) The compounds of the present invention (A, C, D, E, F, G, H, I, J, L, O and P) and the known compound (X) as reference were dissolved in 0.1 N aqueous sodium hydroxide to prepare a solution of 5000 μg/ml in concentration. The compounds of the present invention (B, K, M and N) and the known compound (Y) were dissolved in sterilized distilled water to prepare a solution of 5000 μg/ml in concentration. Each solution was diluted with sterilized distilled water to prepare a standard solution with a concentration of each test compound: 1000 μg/ml. The test was carried out by a method as appointed by Japan Society of Chemotherapy [cf. Chemotherapy, 29, 76-79 (1981)(TOKYO)].
# [2] = system: Pseudomonas aeruginosa IFO 3445; test: Antibacterial activity (MIC), P. aeruginosa IFO 3445; details: Pseudomonas aeruginosa, IFO3445, Pseudomonas aeruginosa IFO 3445, Gram -; read-out: Minimum inhibitory concentration (MIC)
# Experimental: as §1
# [3] = system: Pseudomonas aeruginosa E-2; test: Antibacterial activity (MIC), P. aeruginosa E-2; details: E2; Pseudomonas aeruginosa E-2, Gram -; read-out: Minimum inhibitory concentration (MIC)
# Experimental: as §1
# Enterobacter cloacae 963 = test: Antibacterial activity (MIC), Enterobacter cloacae 963; details: Enterobacter cloacae, 963, Enterobacter cloacae 963, Gram -; read-out: Minimum inhibitory concentration (MIC)
# Experimental: as §1
# [4] = system: Streptococcus faecalis IID 682; test: Antibacterial activity (MIC), Streptococcus faecalis IID 682; details: Enterococcus faecalis
# Experimental: as §1
# [5] = system: Pseudomonas aeruginosa NCTC 10490; test: Antibacterial activity (MIC), P. aeruginosa NCTC 10490; details: Pseudomonas aeruginosa, NCTC10490, Pseudomonas aeruginosa NCTC 10490, Gram -; read-out: Minimum inhibitory concentration (MIC)
# Experimental: as §1
# [6] = system: Bacillus subtilis ATCC 6633; test: Antibacterial activity (MIC), Bacillus subtilis ATCC 6633; details: Bacillus subtilis, ATCC6633, Bacillus subtilis ATCC 6633, Gram +; read-out: Minimum inhibitory concentration (MIC)
# Experimental: as §1
# [7] = system: Citrobacter freundii NIHJ 10018-68; test: Antibacterial activity (MIC), Citrobacter freundii NIHJ 10018-68; details: Citrobacter freundii, NIHJ10018, Citrobacter freundii NIHJ 10018-68, Gram -; read-out: Minimum inhibitory concentration (MIC)
# Experimental: as §1
# Shigella sonnei EW-33 = test: Antibacterial activity (MIC), Shigella sonnei EW-33; details: Shigella sonnei, EW33, Shigella sonnei EW-33, Gram -; read-out: Minimum inhibitory concentration (MIC)
# Experimental: as §1
# Proteus vulgaris OX-19 = test: Antibacterial activity (MIC), Proteus vulgaris OX-19
# Experimental: as §1
# [8] = system: Enterobacter aerogenes ATCC 13048; test: Antibacterial activity (MIC), Enterobacter aerogenes ATCC 13048; details: Klebsiella aerogenes, ATCC13048; Enterobacter aerogenes ATCC 13048, Gram -; read-out: Minimum inhibitory concentration (MIC)
# Experimental: as §1
# [9] = system: Proteus mirabilis IFO 3849; test: Antibacterial activity (MIC), Proteus mirabilis IFO 3849; details: IFO3849; Proteus mirabilis IFO 3849, Gram -; read-out: Minimum inhibitory concentration (MIC)
# Experimental: as §1
# [10] = system: Morganella morganii IFO 3848; test: Antibacterial activity (MIC), Morganella morganii IFO 3848; details: Morganella morganii, IFO3848, Morganella morganii IFO 3848, Gram -; read-out: Minimum inhibitory concentration (MIC)
# Experimental: as §1
# [11] = system: Serratia marcescens IAM 1184; test: Antibacterial activity (MIC), Serratia marcescens IAM 1184; details: Serratia marcescens, IAM1184, Serratia marcescens IAM 1184, Gram -; read-out: Minimum inhibitory concentration (MIC)
# Experimental: as §1
# Escherichia coli KC-14 = test: Antibacterial activity (MIC), E. coli KC-14
# Experimental: as §1
# [12] = system: Klebsiella pneumoniae PCI-602; test: Antibacterial activity (MIC), Klebsiella pneumoniae PCI-602; details: PCI602; Klebsiella pneumoniae PCI-602, Gram -; read-out: Minimum inhibitory concentration (MIC)
# Experimental: as §1
# [13] = system: Salmonella typhimurium IID 971; test: Antibacterial activity (MIC), Salmonella typhimurium IID 971; details: Salmonella enterica, read-out: Minimum inhibitory concentration (MIC)
# Experimental: as §1
# [14] = system: Staphylococcus aureus IID 803; test: Antibacterial activity (MIC), S. aureus IID 803
# Experimental: as §1
# [15] = system: Escherichia coli NIHJ JC-2; test: Antibacterial activity (MIC), E. coli NIHJ JC-2; details: NIHJJC2; Escherichia coli NIHJ JC-2, Gram -; read-out: Minimum inhibitory concentration (MIC)
# Experimental: as §1
# [16] = system: Micrococcus luteus ATCC 9341; test: Antibacterial activity (MIC), Micrococcus luteus ATCC 9341; details: ATCC9341; Micrococcus luteus ATCC 9341, Gram +; read-out: Minimum inhibitory concentration (MIC)
# Experimental: as §1
# [17] = system: Staphylococcus aureus FDA 209P JC-1; test: Antibacterial activity (MIC), S. aureus FDA 209P JC-1; details: FDA209P, read-out: Minimum inhibitory concentration (MIC)
# Experimental: as §1
# [18] = system: Acinetobacter calcoaceticus AC 54; test: Antibacterial activity (MIC), Acinetobacter calcoaceticus AC 54; details: AC54; Acinetobacter calcoaceticus AC 54, Gram -; read-out: Minimum inhibitory concentration (MIC)
# Experimental: as §1
# [19] = IID682, read-out: Minimum inhibitory concentration (MIC)
# [20] = OX19, Proteus vulgaris OX-19, Gram -, read-out: Minimum inhibitory concentration (MIC)
# [21] = KC14, Escherichia coli KC-14, Gram -, read-out: Minimum inhibitory concentration (MIC)
# [22] = IID803, Staphylococcus aureus IID 803, Gram +, read-out: Minimum inhibitory concentration (MIC)
# [23] = Staphylococcus aureus FDA 209P JC-1, Gram +
# [24] = IID682, Streptococcus faecalis IID 682, Gram +, read-out: Minimum inhibitory concentration (MIC)
# [25] = Salmonella typhimurium IID 971, Gram -
# [26] = Staphylococcus aureus, IID803, read-out: Minimum inhibitory concentration (MIC)
Compound,MIC [1],MIC [2],MIC [3],MIC (Enterobacter cloacae 963),MIC [5],MIC [6],MIC [7],MIC (Shigella sonnei EW-33),MIC (Proteus vulgaris OX-19; [20]),MIC [8],MIC [9],MIC [10],MIC [11],MIC (Escherichia coli KC-14; [21]),MIC [12],"MIC [14, 22]",MIC [15],MIC [16],"MIC [17, 23]",MIC [18],further results
"CN1Cc2csc3c(C(=O)O)c(=O)c4cc(F)c(N5CCC(O)C5)c1c4n23 (centres unmarked) [Compound (G), 9,1-(Methylimino)methano-7-fluoro-8-(3-hydroxy-1-pyrrolidinyl)-5-oxo-5H-thiazolo[3,2-a]quinoline-4-carboxylic acid]",0.0125 µg/mL,0.78 µg/mL,0.78 µg/mL,0.2 µg/mL,0.39 µg/mL,0.006 µg/mL,0.78 µg/mL,0.05 µg/mL,0.0125 µg/mL,0.2 µg/mL,0.1 µg/mL,0.2 µg/mL,0.78 µg/mL,0.1 µg/mL,0.006 µg/mL,0.0125 µg/mL,0.1 µg/mL,0.39 µg/mL,0.0125 µg/mL,0.006 µg/mL,"MIC [4, 19]: 0.05 µg/mL; MIC [13]: 0.05 µg/mL"
"CC1CN(c2c(F)cc3c(=O)c(C(=O)O)c4scc5n4c3c2N(C)C5)CC(C)N1 (centres unmarked) [Compound (E), 9,1-(Methylimino)methano-7-fluoro-8-(3,5-dimethyl-1-piperazinyl)-5-oxo-5H-thiazolo[3,2-a]-quinoline-4-carboxylic acid]",0.1 µg/mL,1.56 µg/mL,1.56 µg/mL,0.2 µg/mL,0.39 µg/mL,0.025 µg/mL,1.56 µg/mL,0.05 µg/mL,,0.2 µg/mL,0.78 µg/mL,0.39 µg/mL,0.78 µg/mL,,0.006 µg/mL,,0.1 µg/mL,0.39 µg/mL,,0.025 µg/mL,"MIC [4, 24]: 0.2 µg/mL; MIC (Proteus vulgaris OX-19; Proteus vulgaris, OX19, read-out: Minimum inhibitory concentration (MIC)): 0.05 µg/mL; MIC (Escherichia coli KC-14; Escherichia coli, KC14, read-out: Minimum inhibitory concentration (MIC)): 0.05 µg/mL; MIC [13, 25]: 0.1 µg/mL; MIC [14, 26]: 0.05 µg/mL; MIC ([17]; Staphylococcus aureus): 0.05 µg/mL"
"CN1Cc2csc3c(C(=O)O)c(=O)c4cc(F)c(N5CCNCC5)c1c4n23 [Compound (C), 9,1-(Methylimino)methano-7-fluoro-8-(1-piperazinyl)-5-oxo-5H-thiazolo[3,2-a]quinoline-4-carboxylic acid]",0.05 µg/mL,0.39 µg/mL,0.39 µg/mL,0.05 µg/mL,0.2 µg/mL,0.006 µg/mL,0.1 µg/mL,0.025 µg/mL,0.006 µg/mL,0.05 µg/mL,0.1 µg/mL,0.05 µg/mL,0.2 µg/mL,0.05 µg/mL,0.006 µg/mL,0.05 µg/mL,0.05 µg/mL,0.39 µg/mL,0.05 µg/mL,0.025 µg/mL,"MIC [4, 24]: 0.05 µg/mL; MIC [13, 25]: 0.05 µg/mL"
"CN1Cc2csc3c(C(=O)O)c(=O)c4cc(F)c(N5CCN(O)CC5)c1c4n23 [Compound (L), 9,1-(Methylimino)methano-7-fluoro-8-(4-hydroxy-1-piperazinyl)-5-oxo-5H-thiazolo[3,2-a]quinoline-4-carboxylic acid]",0.1 µg/mL,0.78 µg/mL,0.78 µg/mL,0.1 µg/mL,0.39 µg/mL,0.0125 µg/mL,0.39 µg/mL,0.05 µg/mL,0.0125 µg/mL,0.1 µg/mL,0.2 µg/mL,0.1 µg/mL,0.78 µg/mL,0.1 µg/mL,0.006 µg/mL,,0.1 µg/mL,0.78 µg/mL,,0.025 µg/mL,"MIC [4, 24]: 0.1 µg/mL; MIC [13, 25]: 0.1 µg/mL; MIC [14, 26]: 0.05 µg/mL; MIC ([17]; Staphylococcus aureus): 0.05 µg/mL"
"CN1Cc2csc3c(C(=O)O)c(=O)c4cc(F)c(N5CCOCC5)c1c4n23 [Compound (I), 9,1-(Methylimino)methano-7-fluoro-8-morpholino-5-oxo-5H-thiazolo[3,2-a]quinoline-4-carboxylic acid]",0.025 µg/mL,0.39 µg/mL,0.39 µg/mL,0.1 µg/mL,0.2 µg/mL,0.006 µg/mL,0.78 µg/mL,0.05 µg/mL,0.025 µg/mL,0.2 µg/mL,0.1 µg/mL,0.1 µg/mL,0.39 µg/mL,0.1 µg/mL,0.006 µg/mL,0.006 µg/mL,0.1 µg/mL,0.1 µg/mL,0.006 µg/mL,0.006 µg/mL,"MIC [4, 19]: 0.05 µg/mL; MIC [13]: 0.05 µg/mL"
